Test results reported in patent US10780101B2, “Amide derivatives of squalamine for the treatment of infections” (VIRBAC, priority 2016, dated 2020).
In brackets after ≈: the same amount, converted by molar mass. Read-outs that look alike come from different tables or passages of the source.

Assays:
CHO-K1 cells = test: WST1 cytotoxicity test on CHO-K1 cells; assay type: cell-based, Chinese hamster; conditions: Cricetulus griseus, read-out: IC50 (μg/mL) CHO
Protocol: Test WST1 was used to measure the cytotoxic activity of the products. This is a colorimetric test which makes it possible to measure the viability and the degree of cell proliferation. It is based on cleavage of the colorless tetrazolium salts WST-1 (4-[3-(4-iodophenyl)-2-(4-nitrophenyl)-2H-5-tetrazolio]-1,3-benzene disulfonate) with mitochondrial dehydrogenases to the yellow-colored formazan derivative, which may be quantified by spectrophotometry at 420-480 nm.
The WST1 test was performed on Chinese hamster ovary cells. The CHO-K1 cells (ATCC, USA) are kept in culture in McCoy's 5A medium supplemented with 10% fetal calf serum, 2 mM of L-glutamine and a mixture of penicillin-streptomycin (100 U/ml: 10 μg/ml). The culture is incubated at 37° C. under an atmosphere enriched in CO2 (5%), and subcultured every two days.
The cells are transferred into 96-well plates (25000 cells/mL) in whole McCoy's 5A medium, and maintained for 24 hours at 37° C. under a humid atmosphere enriched in CO2 (5%). Increasing concentrations of test products are added to the wells in double tests and 8 growth controls containing the cells in the medium alone are included in each series of tests. After 24 hours at 37° C. (5% CO2), the culture medium is removed, the cells are rinsed in phosphate buffer (PBS) and 50 μL of PBS containing 10% of reagent WST1 are added to each well. After 20 minutes of incubation at 37° C., the results are read by spectrophotometry at 450 nm.
The results are expressed in dose-response relationships, modeled by nonlinear regression analysis using the TableCurve software. The 50% inhibitory concentration (IC50) represents the concentration of product that is capable of reducing the cell viability by 50%.

P. aeruginosa (1051575) = test: Potentiation of doxycycline activity (combination MIC); assay type: cell-based, Pseudomonas aeruginosa; conditions: for MIC - P. aeruginosa (1051575): content of compound of formula (I) to restore the doxycycline activity (at 2 μg/mL): in presence of doxycycline 2 μg/mL, 24 hours at 37° C.
[1] = system: S. aureus Human ATCC 25923; test: MIC determination, S. aureus human ATCC 25923; assay type: cell-based; conditions: Staphylococcus aureus, ATCC25923; Gram-positive; Mueller-Hinton medium, 24 h at 37° C.
Protocol: (§1) A negative control (2 mL of sterile culture medium)
(§2) A positive control (1940 μL of culture medium+40 μL of DMSO+20 μL of the bacterial suspension) from a thawed biological strain (the biological strains are stored at −80° C. in glycerol).
(§3) The tubes were incubated at 37° C. for 24 hours at 100 rpm.
(§4) The microorganisms were handled under a type L2 laboratory fume cupboard and, before any handling, a UV cycle was programmed and only sterile material was used. […] The chemical compounds to be tested were prepared in a DMSO/methanol mixture (50/50) at a concentration of 5 mg/mL.
(§5) After 24 hours of incubation, a measurement of the optical density was taken using a spectrophotometer at 600 nm, collecting 100 μL of the bacterial suspension diluted in 900 μL of the sterile culture medium. This test required the use of a 96-well plate and the required volume of the microbial suspension to be seeded was calculated for an OD corresponding to a value equal to 0.01 in each well. In this plate, the first line corresponded to the negative control (195 μL of sterile culture medium in each well), the second line corresponded to the positive control (seeded culture medium supplemented with 2% of DMSO), and the third line was loaded twice with bacterial suspension; 8 μL of test product were placed in each well. Thereafter, a 0.5 cascade dilution was performed from this line.
(§6) The first column served as inhibition control. A sterile filter was then placed on the microplate, allowing the passage of gases but not of contaminants. The microplate was incubated at 37° C. under a humid atmosphere for 24 hours.
(§7) NB: The medium used is Mueller-Hinton (MH) medium for bacteria. All the tests were performed in duplicate.
(§8) After incubation, the filter was replaced with a transparent film, and an OD reading was then taken in an iEMS plate spectrophotometer at 620 nm. Calculation of the minimum inhibitory concentration (MIC) was performed.

[2] = system: P. aeruginosa Animal (1051575); test: MIC determination, P. aeruginosa animal (1051575); assay type: cell-based; conditions: Pseudomonas aeruginosa; Gram-negative; Mueller-Hinton medium, 24 h at 37° C.
Protocol: as §1, §2, §3, §4, §5, §6, §7, §8

[3] = system: E. faecalis Human ATCC 29212; test: MIC determination, E. faecalis human ATCC 29212; assay type: cell-based; conditions: Enterococcus faecalis, ATCC29212; Gram-positive; Mueller-Hinton medium, 24 h at 37° C.
Protocol: as §1, §2, §3, §4, §5, §6, §7, §8

S. aureus Animal (340) = test: MIC determination, S. aureus animal (340); assay type: cell-based; conditions: Staphylococcus aureus; Gram-positive; Mueller-Hinton medium, 24 h at 37° C.
Protocol: as §1, §2, §3, §4, §5, §6, §7, §8

E. coli Animal (1956) = test: MIC determination, E. coli animal (1956); assay type: cell-based; conditions: Escherichia coli; Gram-negative; Mueller-Hinton medium, 24 h at 37° C.
Protocol: as §1, §2, §3, §4, §5, §6, §7, §8

[4] = system: P. aeruginosa Human ATCC 27853; test: MIC determination, P. aeruginosa human ATCC 27853; assay type: cell-based; conditions: Pseudomonas aeruginosa, ATCC27853; Gram-negative; Mueller-Hinton medium, 24 h at 37° C.
Protocol: as §1, §2, §3, §4, §5, §6, §7, §8

[5] = system: S. intermedius Animal (1051997); test: MIC determination, S. intermedius animal (1051997); assay type: cell-based; conditions: Staphylococcus intermedius; Gram-positive; Mueller-Hinton medium, 24 h at 37° C.
Protocol: as §1, §2, §3, §4, §5, §6, §7, §8

E. coli Human ATCC 28922 = test: MIC determination, E. coli human ATCC 28922; assay type: cell-based; conditions: Escherichia coli, ATCC28922; Gram-negative; Mueller-Hinton medium, 24 h at 37° C.
Protocol: as §1, §2, §3, §4, §5, §6, §7, §8

Structure (SMILES)	IC50 (CHO-K1 cells; CHO-K1, 24 h)	MIC - P. aeruginosa (1051575): content of compound of formula (I) to restore the doxycycline activity (at 2 μg/mL) (P. aeruginosa (1051575))	MIC [1]	MIC [2]	MIC [3]	MIC (S. aureus Animal (340))	MIC (E. coli Animal (1956))	MIC [4]	MIC [5]	MIC (E. coli Human ATCC 28922)	synergism when administered with doxycycline (P. aeruginosa (1051575); doxycycline at 2 μg/mL)	IC50 (CHO-K1 cells; Table III, WST1 test, CHO-K1 cells, 24 hours)
CCN(CC)C(=O)CC[C@@H](C)[C@H]1CCC2C3C(CC[C@@]21C)[C@@]1(C)CC[C@H](NCCCNCCNCCCN)CC1C[C@H]3O (stereo partly drawn) [(53), 3β-(bis(3-aminopropyl)ethylenediamine)-N,N-diethylchenodeoxycholamide]	30 µg/mL (≈ 49.7 µM)	2 µg/mL	4 µg/mL (≈ 6.62 µM)	15 µg/mL (≈ 24.8 µM)	2 µg/mL (≈ 3.31 µM)	4 µg/mL (≈ 6.62 µM)	15 µg/mL (≈ 24.8 µM)	30 µg/mL (≈ 49.7 µM)	2 µg/mL (≈ 3.31 µM)	60 µg/mL (≈ 99.3 µM)	–	–
CC(C)NC(=O)CC[C@@H](C)[C@H]1CCC2C3CCC4C[C@@H](NCCCNCCCCNCCCN)CC[C@]4(C)C3CC[C@@]21C (stereo partly drawn) [Compound (36), 3β-spermino-N-isopropyllithocholamide]	36 µg/mL (≈ 59.8 µM)	0.5 µg/mL	3.75 µg/mL (≈ 6.23 µM)	30 µg/mL (≈ 49.8 µM)	7.5 µg/mL (≈ 12.5 µM)	3.75 µg/mL (≈ 6.23 µM)	15 µg/mL (≈ 24.9 µM)	15 µg/mL (≈ 24.9 µM)	1.87 µg/mL (≈ 3.11 µM)	7.5 µg/mL (≈ 12.5 µM)	noteworthy synergism	–
CC(C)NC(=O)CC[C@@H](C)[C@H]1CCC2C3CCC4C[C@@H](NCCNCCNCCNCCNCCN)CC[C@]4(C)C3C[C@H](O)[C@@]21C (stereo partly drawn) [(20), 3β-(pentaethylenehexamine)-N-isopropyldeoxycholamide]	18 µg/mL (≈ 27.8 µM)	4 µg/mL	8 µg/mL (≈ 12.3 µM)	32 µg/mL (≈ 49.4 µM)	8 µg/mL (≈ 12.3 µM)	8 µg/mL (≈ 12.3 µM)	16 µg/mL (≈ 24.7 µM)	32 µg/mL (≈ 49.4 µM)	4 µg/mL (≈ 6.17 µM)	8 µg/mL (≈ 12.3 µM)	–	–
CC(C)NC(=O)CC[C@@H](C)[C@H]1CCC2C3C(CC[C@@]21C)[C@@]1(C)CC[C@H](NCCCNCCCNCCCN)CC1C[C@@H]3O (stereo partly drawn) [(14), 3β-norspermino-N-isopropylursodeoxycholamide]	90 µg/mL (≈ 149 µM)	1 µg/mL	16 µg/mL (≈ 26.5 µM)	128 µg/mL (≈ 212 µM)	128 µg/mL (≈ 212 µM)	32 µg/mL (≈ 53 µM)	128 µg/mL (≈ 212 µM)	64 µg/mL (≈ 106 µM)	4 µg/mL (≈ 6.62 µM)	128 µg/mL (≈ 212 µM)	–	–
C[C@H](CCC(=O)NC1CCCCC1)[C@H]1CCC2C3C(CC[C@@]21C)[C@@]1(C)CC[C@H](NCCCNCCCN)CC1C[C@H]3O (stereo partly drawn) [(38), 3β-norspermidino-N-cyclohexylchenodeoxycholamide]	12 µg/mL (≈ 20.4 µM)	2 µg/mL	4 µg/mL (≈ 6.81 µM)	30 µg/mL (≈ 51.1 µM)	4 µg/mL (≈ 6.81 µM)	4 µg/mL (≈ 6.81 µM)	15 µg/mL (≈ 25.6 µM)	30 µg/mL (≈ 51.1 µM)	2 µg/mL (≈ 3.41 µM)	30 µg/mL (≈ 51.1 µM)	–	–
CC(C)NC(=O)CC[C@@H](C)[C@H]1CCC2C3C(CC[C@@]21C)[C@@]1(C)CC[C@H](NCCNCCNCCNCCNCCN)CC1C[C@@H]3O (stereo partly drawn) [(23), 3β-(pentaethylenehexamine)-N-isopropylursodeoxycholamide]	–	–	32 µg/mL (≈ 49.4 µM)	128 µg/mL (≈ 198 µM)	64 µg/mL (≈ 98.8 µM)	32 µg/mL (≈ 49.4 µM)	128 µg/mL (≈ 198 µM)	128 µg/mL (≈ 198 µM)	16 µg/mL (≈ 24.7 µM)	128 µg/mL (≈ 198 µM)	–	115 µg/mL (≈ 177 µM)
CC(C)NC(=O)CC[C@@H](C)[C@H]1CCC2C3C(CC[C@@]21C)[C@@]1(C)CC[C@H](NCCCN2CCN(CCCN)CC2)CC1C[C@@H]3O (stereo partly drawn) [(16), 3β-(1,4-bis(3-aminopropyl)piperazine)-N-isopropylursodeoxycholamide]	–	–	60 µg/mL (≈ 97.4 µM)	> 120 µg/mL	120 µg/mL (≈ 195 µM)	60 µg/mL (≈ 97.4 µM)	120 µg/mL (≈ 195 µM)	> 120 µg/mL	15 µg/mL (≈ 24.4 µM)	60 µg/mL (≈ 97.4 µM)	–	–
